Results taken from patent US10294202B2, “Pyrrolidinones as herbicides” (FMC Corporation, priority 2013, dated 2019).

Key:
foxtail, giant = experiment: Test C pre-/postemergence herbicide test; assay type: in vivo, Setaria faberii
Method in brief: (§1)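 Greenhouse plants scored visually against untreated controls 13–15 days after treatment, 0 = no effect, 100 = complete control. Test chemicals in a non-phytotoxic solvent with surfactant were applied either to soil (loam/sand) at planting or to foliage of 1- to 4-leaf plants, 2–18 cm tall.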

barnyardgrass [1] = experiment: Test A pre-/postemergence herbicide test; assay type: in vivo, Echinochloa crus-galli
Method in brief: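 Visual 0–100 ratings (100 = complete control) made about 10 days after treatment, greenhouse-held plants compared with untreated controls. Treatments: postemergence sprays on one- to two-leaf plants (2–10 cm tall) and preemergence directed soil sprays after planting in loam–sand, chemicals formulated in non-phytotoxic solvent containing surfactant.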

barnyardgrass [2] = experiment: Test C pre-/postemergence herbicide test; assay type: in vivo, Echinochloa crus-galli
Method in brief: as §1

blackgrass = experiment: Test C pre-/postemergence herbicide test; assay type: in vivo, Alopecurus myosuroides
Method in brief: as §1

galium = experiment: Test C pre-/postemergence herbicide test; assay type: in vivo, Galium aparine
Method in brief: as §1

crabgrass, large = experiment: Test C pre-/postemergence herbicide test; assay type: in vivo, Digitaria sanguinalis
Method in brief: as §1

wheat (winter wheat) = experiment: Test C pre-/postemergence herbicide test; assay type: in vivo, Triticum aestivum
Method in brief: as §1

velvetleaf = experiment: Test C pre-/postemergence herbicide test; assay type: in vivo, Abutilon theophrasti
Method in brief: as §1

oilseed rape = experiment: Test C pre-/postemergence herbicide test; assay type: in vivo, Brassica napus
Method in brief: as §1

soybean = experiment: Test C pre-/postemergence herbicide test; assay type: in vivo, Glycine max
Method in brief: as §1

pigweed = experiment: Test C pre-/postemergence herbicide test; assay type: in vivo, Amaranthus retroflexus
Method in brief: as §1

oat, wild = experiment: Test C pre-/postemergence herbicide test; assay type: in vivo, Avena fatua; conditions: Postemergence
Method in brief: as §1

[3] = Postemergence, 31 g ai/ha, scale 0 (no effect) to 100 (complete control)
[4] = Postemergence, 62 g ai/ha, scale 0 to 100 (0 no effect, 100 complete control)
[5] = Postemergence, 125 g ai/ha, scale 0 to 100 (0 no effect, 100 complete control)
[6] = Postemergence, 250 g ai/ha, scale 0 to 100 (0 no effect, 100 complete control)
[7] = Preemergence, 31 g ai/ha, scale 0 to 100, 0 is no effect and 100 is complete control
[8] = Preemergence, 62 g ai/ha, scale 0 to 100
[9] = Preemergence, 125 g ai/ha, scale 0 to 100 (0 no effect, 100 complete control)
[10] = 31 g ai/ha, scale 0 (no effect) to 100 (complete control)
[11] = 62 g ai/ha, scale 0 to 100 (0 no effect, 100 complete control)
[12] = 125 g ai/ha, scale 0 to 100 (0 no effect, 100 complete control)
[13] = 250 g ai/ha, scale 0 to 100 (0 no effect, 100 complete control)

`O=C1NCC(c2ccc(F)c(F)c2)C1C(=O)Nc1cccc(F)c1F` (racemic) [Compound 101] was tested, and the “Plant response rating, Foxtail, Giant” value (foxtail, giant; [3]) was 0, the “Plant response rating, Foxtail, Giant” value (foxtail, giant; [4]) was 20 and the “Plant response rating, Foxtail, Giant” value (foxtail, giant; [5]) was 75. For the same compound, the “Plant response rating, Foxtail, Giant” value (foxtail, giant; [6]) was 90, the “Foxtail, Giant plant response rating” value (foxtail, giant; [7]) was 95 and the “Plant response rating, Foxtail, Giant” value (foxtail, giant; [8]) was 95. The “Plant response rating, Foxtail, Giant” value (foxtail, giant; [9]) was 98, the “Plant response rating (scale of 0 to 100), Foxtail, Giant” value (foxtail, giant; Preemergence, 250 g ai/ha) was 98 and the “Plant response rating, Barnyardgrass” value (barnyardgrass [1]; Postemergence, 125 g ai/ha, 0 to 100 scale, 0 no effect, 100 complete control) was 80. The “Plant response rating, Barnyardgrass” value (barnyardgrass [1]; Postemergence, 500 g ai/ha, 0 to 100 scale (0 no effect, 100 complete control)) was 90, the “Barnyardgrass plant response rating” value (barnyardgrass [1]; Preemergence, 125 g ai/ha, visual rating on 0 to 100 scale (0 no effect, 100 complete control)) was 90 and the “Plant response rating, Barnyardgrass” value (barnyardgrass [1]; preemergence, 500 g ai/ha, 0 to 100 scale (0 no effect, 100 complete control)) was 90. The “Plant response rating, Barnyardgrass” value (barnyardgrass [2]; [3]) was 0, the “Plant response rating, Barnyardgrass” value (barnyardgrass [2]; [4]) was 35 and the “Plant response rating, Barnyardgrass” value (barnyardgrass [2]; [5]) was 65. The “Plant response rating, Barnyardgrass” value (barnyardgrass [2]; [6]) was 90, the “Barnyardgrass plant response rating” value (barnyardgrass [2]; [7]) was 90 and the “Plant response rating, Barnyardgrass” value (barnyardgrass [2]; [8]) was 95. The “Plant response rating, Barnyardgrass” value (barnyardgrass [2]; [9]) was 95, the “Plant response rating (scale of 0 to 100; 0 is no effect, 100 is complete control), Barnyardgrass” value (barnyardgrass [2]; Preemergence, 250 g ai/ha) was 95 and the “Plant response rating, Blackgrass” value (blackgrass; [3]) was 0. For the same compound, the “Plant response rating, Blackgrass” value (blackgrass; [4]) was 0, the “Plant response rating, Blackgrass” value (blackgrass; [5]) was 10 and the “Plant response rating, Blackgrass” value (blackgrass; [6]) was 5. The “Blackgrass plant response rating” value (blackgrass; [7]) was 0, the “Plant response rating, Blackgrass” value (blackgrass; [8]) was 50 and the “Plant response rating, Blackgrass” value (blackgrass; [9]) was 70. For the same compound, the “Plant response rating (scale of 0 to 100), Blackgrass” value (blackgrass; Preemergence, 250 g ai/ha) was 90, the “Plant response rating, Galium” value (galium; [3]) was 50 and the “Plant response rating, Galium” value (galium; [4]) was 50. For the same compound, the “Plant response rating, Galium” value (galium; [5]) was 30, the “Plant response rating, Galium” value (galium; [6]) was 70 and the “Galium plant response rating” value (galium; [7]) was 0. The “Plant response rating, Galium” value (galium; [8]) was 40, the “Plant response rating, Galium” value (galium; [9]) was 90 and the “Plant response rating (scale of 0 to 100), Galium” value (galium; Preemergence, 250 g ai/ha) was 85. For the same compound, the “Plant response rating, Crabgrass, Large” value (crabgrass, large; [3]) was 25, the “Plant response rating, Crabgrass, Large” value (crabgrass, large; [4]) was 50 and the “Plant response rating, Crabgrass, Large” value (crabgrass, large; [5]) was 80. For the same compound, the “Plant response rating, Crabgrass, Large” value (crabgrass, large; [6]) was 85, the “Crabgrass, Large plant response rating” value (crabgrass, large; [7]) was 95 and the “Plant response rating, Crabgrass, Large” value (crabgrass, large; [8]) was 98. For the same compound, the “Plant response rating, Crabgrass, Large” value (crabgrass, large; [9]) was 98, the “Plant response rating (scale of 0 to 100), Crabgrass, Large” value (crabgrass, large; Preemergence, 250 g ai/ha) was 100 and the “Plant response rating, Wheat” value (wheat (winter wheat); [3]) was 0. For the same compound, the “Plant response rating, Wheat” value (wheat (winter wheat); [4]) was 0, the “Plant response rating, Wheat” value (wheat (winter wheat); [5]) was 0 and the “Plant response rating, Wheat” value (wheat (winter wheat); [6]) was 0. The “Wheat plant response rating” value (wheat (winter wheat); [7]) was 0, the “Plant response rating, Wheat” value (wheat (winter wheat); [8]) was 20 and the “Plant response rating, Wheat” value (wheat (winter wheat); [9]) was 50. The “Plant response rating (scale of 0 to 100), Wheat” value (wheat (winter wheat); Preemergence, 250 g ai/ha) was 55, the “Plant response rating, Velvetleaf” value (velvetleaf; [3]) was 0 and the “Plant response rating, Velvetleaf” value (velvetleaf; [4]) was 0. For the same compound, the “Plant response rating, Velvetleaf” value (velvetleaf; [5]) was 10, the “Plant response rating, Velvetleaf” value (velvetleaf; [6]) was 30 and the “Velvetleaf plant response rating” value (velvetleaf; [7]) was 15. For the same compound, the “Plant response rating, Velvetleaf” value (velvetleaf; [8]) was 0, the “Plant response rating, Velvetleaf” value (velvetleaf; [9]) was 5 and the “Plant response rating (scale of 0 to 100), Velvetleaf” value (velvetleaf; Preemergence, 250 g ai/ha) was 70. The “Plant response rating, Oilseed Rape” value (oilseed rape; [3]) was 5, the “Plant response rating, Oilseed Rape” value (oilseed rape; [4]) was 10 and the “Plant response rating, Oilseed Rape” value (oilseed rape; [5]) was 50. The “Plant response rating, Oilseed Rape” value (oilseed rape; [6]) was 35, the “Oilseed Rape plant response rating” value (oilseed rape; [7]) was 0 and the “Plant response rating, Oilseed Rape” value (oilseed rape; [8]) was 35. For the same compound, the “Plant response rating, Oilseed Rape” value (oilseed rape; [9]) was 80, the “Plant response rating (scale of 0 to 100), Oilseed Rape” value (oilseed rape; Preemergence, 250 g ai/ha) was 80 and the “Plant response rating, Soybean” value (soybean; [3]) was 0. For the same compound, the “Plant response rating, Soybean” value (soybean; [4]) was 0, the “Plant response rating, Soybean” value (soybean; [5]) was 5 and the “Plant response rating, Soybean” value (soybean; [6]) was 5. For the same compound, the “Soybean plant response rating” value (soybean; [7]) was 0, the “Plant response rating, Soybean” value (soybean; [8]) was 0 and the “Plant response rating, Soybean” value (soybean; [9]) was 0. The “Plant response rating (scale of 0 to 100), Soybean” value (soybean; Preemergence, 250 g ai/ha) was 10, the “Plant response rating, Pigweed” value (pigweed; [3]) was 0 and the “Plant response rating, Pigweed” value (pigweed; [4]) was 10. The “Plant response rating, Pigweed” value (pigweed; [5]) was 15, the “Plant response rating, Pigweed” value (pigweed; [6]) was 45 and the “Pigweed plant response rating” value (pigweed; [7]) was 0. The “Plant response rating, Pigweed” value (pigweed; [8]) was 0, the “Plant response rating, Pigweed” value (pigweed; [9]) was 55 and the “Plant response rating (scale of 0 to 100), Pigweed” value (pigweed; Preemergence, 250 g ai/ha) was 85. For the same compound, the “Plant response rating, Oat, Wild” value (oat, wild; [10]) was 0, the “Plant response rating, Oat, Wild” value (oat, wild; [11]) was 0 and the “Plant response rating, Oat, Wild” value (oat, wild; [12]) was 0. For the same compound, the “Plant response rating, Oat, Wild” value (oat, wild; [13]) was 0.

With `Cc1c(F)cccc1NC(=O)C1C(=O)NCC1c1ccc(F)c(F)c1` (racemic) [Compound 106] the “Plant response rating, Foxtail, Giant” value (foxtail, giant; [3]) was 50, the “Plant response rating, Foxtail, Giant” value (foxtail, giant; [4]) was 35 and the “Plant response rating, Foxtail, Giant” value (foxtail, giant; [5]) was 45. For the same compound, the “Plant response rating, Foxtail, Giant” value (foxtail, giant; [6]) was 50, the “Plant response rating, Barnyardgrass” value (barnyardgrass [1]; Postemergence, 1000 g ai/ha, 0 to 100 scale (0 no effect, 100 complete control)) was 90 and the “Plant response rating, Barnyardgrass” value (barnyardgrass [1]; preemergence, 1000 g ai/ha, 0 to 100 scale (0 no effect, 100 complete control)) was 90. The “Plant response rating, Barnyardgrass” value (barnyardgrass [2]; [3]) was 0, the “Plant response rating, Barnyardgrass” value (barnyardgrass [2]; [4]) was 0 and the “Plant response rating, Barnyardgrass” value (barnyardgrass [2]; [5]) was 0. For the same compound, the “Plant response rating, Barnyardgrass” value (barnyardgrass [2]; [6]) was 30, the “Plant response rating, Blackgrass” value (blackgrass; [3]) was 0 and the “Plant response rating, Blackgrass” value (blackgrass; [4]) was 0. The “Plant response rating, Blackgrass” value (blackgrass; [5]) was 0, the “Plant response rating, Blackgrass” value (blackgrass; [6]) was 0 and the “Plant response rating, Galium” value (galium; [3]) was 0. The “Plant response rating, Galium” value (galium; [4]) was 0, the “Plant response rating, Galium” value (galium; [5]) was 50 and the “Plant response rating, Galium” value (galium; [6]) was 35. The “Plant response rating, Crabgrass, Large” value (crabgrass, large; [3]) was 10, the “Plant response rating, Crabgrass, Large” value (crabgrass, large; [4]) was 10 and the “Plant response rating, Crabgrass, Large” value (crabgrass, large; [5]) was 25. For the same compound, the “Plant response rating, Crabgrass, Large” value (crabgrass, large; [6]) was 60, the “Plant response rating, Wheat” value (wheat (winter wheat); [3]) was 0 and the “Plant response rating, Wheat” value (wheat (winter wheat); [4]) was 0. The “Plant response rating, Wheat” value (wheat (winter wheat); [5]) was 0, the “Plant response rating, Wheat” value (wheat (winter wheat); [6]) was 0 and the “Plant response rating, Velvetleaf” value (velvetleaf; [3]) was 0. For the same compound, the “Plant response rating, Velvetleaf” value (velvetleaf; [4]) was 0, the “Plant response rating, Velvetleaf” value (velvetleaf; [5]) was 5 and the “Plant response rating, Velvetleaf” value (velvetleaf; [6]) was 5. The “Plant response rating, Oilseed Rape” value (oilseed rape; [3]) was 0, the “Plant response rating, Oilseed Rape” value (oilseed rape; [4]) was 0 and the “Plant response rating, Oilseed Rape” value (oilseed rape; [5]) was 0. The “Plant response rating, Oilseed Rape” value (oilseed rape; [6]) was 0, the “Plant response rating, Soybean” value (soybean; [3]) was 0 and the “Plant response rating, Soybean” value (soybean; [4]) was 0. The “Plant response rating, Soybean” value (soybean; [5]) was 5, the “Plant response rating, Soybean” value (soybean; [6]) was 5 and the “Plant response rating, Pigweed” value (pigweed; [3]) was 0. The “Plant response rating, Pigweed” value (pigweed; [4]) was 0, the “Plant response rating, Pigweed” value (pigweed; [5]) was 5 and the “Plant response rating, Pigweed” value (pigweed; [6]) was 30. For the same compound, the “Plant response rating, Oat, Wild” value (oat, wild; [10]) was 0, the “Plant response rating, Oat, Wild” value (oat, wild; [11]) was 0 and the “Plant response rating, Oat, Wild” value (oat, wild; [12]) was 0. For the same compound, the “Plant response rating, Oat, Wild” value (oat, wild; [13]) was 0.
